PubChem BioAssay (NCI)
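Exposure lasted 48 hours, with cells grown in 96-well plates and compounds tested at five concentrations. GI50 marks 50% less growth. TGI: total growth inhibition.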

Test system: MDA-MB-468 breast
Assay: NCI anticancer screen, dose series, 48 h

`O=S1(=O)N(Cc2ccccc2)[C@@H](Cc2ccccc2)C2O[C@H]2[C@H](Cc2ccccc2)N1Cc1ccccc1` (some centres undefined) was tested. Which GI50 did it give?
The GI50 was 0.274 µM.

And the TGI?
Its TGI is greater than 7.5 µM.

`O=CN1N=C(c2ccc(Nc3ccnc4cc(Cl)ccc34)cc2)CC1c1ccccc1` (centres undefined) was tested. Which GI50 did it give?
The GI50 was 0.975 µM.

And the TGI?
The TGI was 3.15 µM.

With `C[C@@H]1COCCN1c1nc(-c2cnc(N)cc2C(F)F)nc(N2[C@H](C)COC[C@@H]2C)n1` as the molecule, how does the GI50 read?
Its GI50 is 0.185 µM.

What about the TGI of the same molecule?
The TGI was 1.62 µM.

How did the GI50 turn out when `N#Cc1cccc(C(=O)c2cnn(-c3ccc(F)cc3)c2N)c1` was run?
The GI50 was greater than 25 µM.

What about the TGI of the same molecule?
The TGI was greater than 25 µM.

For `C=C1C(=O)O[C@H]2[C@H]1CC/C(CNS(=O)(=O)c1ccc3ccccc3c1)=C\CC[C@@]1(C)O[C@@H]21`, which GI50 is on record?
The GI50 was 0.363 µM.

What about the TGI of the same molecule?
The TGI was 1.62 µM.

`Nc1ccc(N=Nc2ccccc2)c(N)n1` was tested. Which GI50 did it give?
Its GI50 is 16.2 µM.

And the TGI?
Its TGI is 60.9 µM.

Which results are given for `O=C(Nc1ncc(Cc2ccccc2)s1)c1ccc2c(c1)OCCCO2`?
GI50: 0.413 µM; TGI: > 100 µM

What does the source list for `CCN(CC)c1ccc(N=C2C=C(C(=O)Nc3ccc(S(C)(=O)=O)cc3)C(=O)c3ccccc32)c(C)c1`?
GI50: > 100 µM; TGI: > 100 µM

How did the GI50 turn out when `CCN(CC)CCOc1ccc(Nc2ncc3cc(-c4c(Cl)cccc4Cl)c(=O)n(CCOC)c3n2)cc1` was run?
Its GI50 is 1.26 µM.

What about the TGI of the same molecule?
The TGI was 3.99 µM.

Which results are given for `CC/C=C\C/C=C\C[C@H](O)C/C=C1/C(=O)C=C[C@H]1C/C=C\CCC(=O)OC`?
GI50: 1.56 µM; TGI: 4.74 µM

How did the GI50 turn out when `O=c1[nH]cnc2c1nnn2C1OC(CO)C(O)C1O` (centres undefined) was run?
Its GI50 is 0.577 µM.

And the TGI?
Its TGI is 22 µM.

`OCc1cccc(-c2ccc3ncc(-c4nc(NC5CC5)ncc4F)n3c2)c1` was tested. Which GI50 did it give?
The GI50 was 0.25 µM.

What about the TGI of the same molecule?
Its TGI is 0.603 µM.

How did the GI50 turn out when `NS(=O)(=O)c1ccc(C2C3=C(CCCC3=O)OC3=C2C(=O)c2ccccc2C3=O)cc1` (centres undefined) was run?
The GI50 was 0.231 µM.

And the TGI?
The TGI was 0.671 µM.

With `NC(=O)C(Br)CBr` (centres undefined) as the molecule, how does the GI50 read?
The GI50 was 1.46 µM.

What about the TGI of the same molecule?
Its TGI is 4.35 µM.

With `COc1cc2c(c(OC)c1OC)-c1ccc(NNC(=S)N(Cc3cccc(C[N+](Cc4cccc(CNC56CC7CC(CC(C7)C5)C6)c4)(Cc4cccc(CNC56CC7CC(CC(C7)C5)C6)c4)Cc4cccc(CN(C(=S)NNc5ccc6c(cc5=O)[C@@H](NC(C)=O)CCc5cc(OC)c(OC)c(OC)c5-6)C56CC7CC(CC(C7)C5)C6)c4)c3)C34CC5CC(CC(C5)C3)C4)c(=O)cc1[C@@H](NC(C)=O)CC2` (some centres undefined) as the molecule, how does the GI50 read?
Its GI50 is 0.657 µM.

What about the TGI of the same molecule?
The TGI was 1.75 µM.

Which GI50 does the source give for `COc1cc([C@@H]2c3cc4c(cc3C(Br)[C@H]3COC(=O)[C@H]23)OCO4)cc(OC)c1OC` (some centres undefined) here?
The GI50 was 0.175 µM.

And the TGI?
The TGI was 0.625 µM.

For `N#Cc1ccc(/C=N/NC(=O)c2[nH]c3ccc(Br)cc3c2-c2ccccc2)s1`, which GI50 is on record?
The GI50 was 0.292 µM.

What about the TGI of the same molecule?
The TGI was 10.3 µM.

Which GI50 does the source give for `C=C1C(=O)O[C@H]2[C@H]1CC/C(CNC(=O)/C=C/c1cccc(OC)c1)=C\CC[C@@]1(C)O[C@@H]21` here?
The GI50 was 0.485 µM.

What about the TGI of the same molecule?
Its TGI is 2.13 µM.

For `O=C1c2ccccc2-c2nccc3cc(Cl)nc1c23`, which GI50 is on record?
Its GI50 is 0.23 µM.

And the TGI?
The TGI was 0.602 µM.

Which results are given for `COc1ccc(Nc2ncccc2/C=C/C(=O)c2cc(OC)c(OC)c(OC)c2)cc1`?
GI50: 1.15 µM; TGI: 2.44 µM

What does the source list for `CC1=C(C(=O)Nc2ccc3[nH]ncc3c2)C(c2ccc(F)cc2)NC(=O)N1` (centres undefined)?
GI50: > 25 µM; TGI: > 25 µM

How did the GI50 turn out when `Cc1[nH]c(C(=O)Nc2ccc(C(=O)N3CCNCC3)cc2OC(C)C)c(Cl)c1Cl` was run?
The GI50 was 1.67 µM.

And the TGI?
The TGI was 3.18 µM.

`CCCCCCCCCCCCCC[P+](CCCCCC)(CCCCCC)CCCCCC` was tested. Which GI50 did it give?
The GI50 was 0.0366 µM.

What about the TGI of the same molecule?
The TGI was 0.175 µM.

Which GI50 does the source give for `CCCCCCCCCCCCCCCC(=O)OCC1OC(n2cnc3c(=S)nc(N)[nH]c32)C(OC(=O)CCCCCCCCCCCCCCC)C1OC(=O)CCCCCCCCCCCCCCC` (centres undefined) here?
The GI50 was 1.39 µM.

What about the TGI of the same molecule?
Its TGI is greater than 50 µM.

What does the source list for `COC(=O)Nc1nc2ccc(Oc3ccc(NC(=O)Nc4cccc(Br)c4)cc3)cc2[nH]1`?
GI50: 1.29 µM; TGI: 6.28 µM

How did the GI50 turn out when `Nc1ccccc1NC(=O)CCCCCCC(=O)Nc1ccc2c(c1)/C(=C/c1ccc[nH]1)C(=O)N2` was run?
The GI50 was 1.83 µM.

What about the TGI of the same molecule?
The TGI was greater than 100 µM.

`Nc1c(C(=O)c2cccc(-c3ccc[n+]([O-])c3)c2)cnn1-c1ccc(F)cc1F` was tested. Which GI50 did it give?
Its GI50 is greater than 25 µM.

And the TGI?
The TGI was greater than 25 µM.

With `CNc1nc(C)c(-c2nc(Nc3cccc(S(N)(=O)=O)c3)ncc2F)s1` as the molecule, how does the GI50 read?
Its GI50 is 0.0354 µM.

What about the TGI of the same molecule?
The TGI was 0.116 µM.

Which results are given for `CCOCC(=O)N[C@H]1CCc2cc(OC)c(OC)c(OC)c2-c2ccc(SC)c(=O)cc21`?
GI50: < 0.01 µM; TGI: > 100 µM

`CN(C)c1ccc(C(=O)c2ccc(N(C)C)c(N)c2)cc1N` was tested. Which GI50 did it give?
The GI50 was 0.781 µM.

What about the TGI of the same molecule?
The TGI was 4.72 µM.

What does the source list for `COc1cc(C(=O)/C=C/c2c(-c3ccc(F)cc3)nc3sc(C)cn23)cc(OC)c1OC`?
GI50: 2.38 µM; TGI: > 100 µM

Which GI50 does the source give for `O=C1C2=C(C(=O)c3c(O)cccc31)C(c1ccco1)c1sc(=O)[nH]c1S2` (centres undefined) here?
The GI50 was 2.01 µM.

And the TGI?
Its TGI is 6.59 µM.

What does the source list for `CCc1ccc(-c2ccc(=O)n(-c3ccc(S(N)(=O)=O)cc3)n2)cc1`?
GI50: 3.18 µM; TGI: > 100 µM

Which results are given for `CCOC(=O)c1c2c(n3ccc(NC(=O)OC(C)(C)C)cc13)C(=O)c1ncccc1C2=O`?
GI50: 1.33 µM; TGI: 3.82 µM

Which GI50 does the source give for `Nc1nc2c(c3ncccc13)C(c1ccc(Cl)c(Cl)c1)Cc1ncccc1-2` (centres undefined) here?
The GI50 was 3.25 µM.

And the TGI?
The TGI was 11.2 µM.

Which GI50 does the source give for `Cc1ccccc1S(=O)(=O)N1[C@H](c2ccc(Cl)cc2)C(C(=O)N[C@@H](Cc2ccccc2)C(N)=O)=C[C@@H]1C(C)(C)C` here?
Its GI50 is 4.13 µM.

What about the TGI of the same molecule?
The TGI was 12.5 µM.

For `Cc1nc2cncc(C#Cc3cncc(C(=O)Nc4ccc(CN5CCN(C)CC5)c(C(F)(F)F)c4)c3)c2nc1C`, which GI50 is on record?
The GI50 was 0.949 µM.

And the TGI?
The TGI was 7.34 µM.

How did the GI50 turn out when `COc1ccc(C(O)c2cc3c(N)c(C(=O)Nc4cccc(Cl)c4C)sc3nc2C)cc1` (centres undefined) was run?
Its GI50 is 0.742 µM.

And the TGI?
The TGI was 1.48 µM.

`Fc1ccc(C2CC(c3cccc(Nc4ccncc4)c3)=NN2c2cc(Cl)cc(Cl)c2)cc1` (centres undefined) was tested. Which GI50 did it give?
Its GI50 is 1.76 µM.

And the TGI?
Its TGI is 3.72 µM.

Which GI50 does the source give for `N#Cc1c2ccccc2c2n1-c1ccccc1OC(c1ccccc1)C2=O` (centres undefined) here?
The GI50 was 3.26 µM.

What about the TGI of the same molecule?
Its TGI is 13.1 µM.

Which GI50 does the source give for `CN(C)C(=S)NN=C(c1ccccn1)c1ccccn1` here?
Its GI50 is less than 0.01 µM.

And the TGI?
Its TGI is 24 µM.

With `Cn1c(=O)c(Oc2cccc(F)c2)cc2cnc(NC3CCOCC3)nc21` as the molecule, how does the GI50 read?
The GI50 was greater than 25 µM.

What about the TGI of the same molecule?
Its TGI is greater than 25 µM.

`COc1ccc(-c2nsc3c2NC(=O)CC3c2ccc3c(c2)OCO3)cc1` (centres undefined) was tested. Which GI50 did it give?
The GI50 was 0.612 µM.

And the TGI?
Its TGI is 25.9 µM.

With `COc1cc2c(cc1OCCCOC1=C=C=C(c3ccc4c(c3)c3cc(-c5ccc(OCCCOc6cc7c(cc6OC)C(=O)N6CCC[C@H]6C=N7)cc5)ccc3n4S(=O)(=O)c3ccc(C)cc3)C=C1)N=C[C@@H]1CCCN1C2=O` as the molecule, how does the GI50 read?
Its GI50 is 1.04 µM.

And the TGI?
Its TGI is 3.04 µM.

`CCCCCCOc1ccc(/C=N/NC(N)=S)cc1` was tested. Which GI50 did it give?
Its GI50 is 6.39 µM.

What about the TGI of the same molecule?
The TGI was 32.7 µM.

`COc1ccc(Nc2ccnc(NCCNc3ccnc4cc(Cl)ccc34)n2)cc1` was tested. Which GI50 did it give?
The GI50 was 0.997 µM.

What about the TGI of the same molecule?
Its TGI is 3.22 µM.

How did the GI50 turn out when `CCOC(=O)c1cc2c(n1Cc1cc(OC)cc(OC)c1)-c1oncc1CCC2` was run?
Its GI50 is 0.0474 µM.

What about the TGI of the same molecule?
The TGI was greater than 100 µM.

With `CNC(=O)c1c(NC(=O)c2cccc(C(F)(F)F)c2)sc2c1CCC(=O)C2` as the molecule, how does the GI50 read?
The GI50 was 0.396 µM.

And the TGI?
Its TGI is 2.3 µM.

For `COc1ccc(C2=CC(c3cc(OC)c(OC)c(OC)c3)NC(=O)N2)cc1OC` (centres undefined), which GI50 is on record?
The GI50 was 3.21 µM.

What about the TGI of the same molecule?
Its TGI is 15.1 µM.

Which results are given for `O=C(CCCCCCNC(=O)C(O)(O)C(F)(F)F)Nc1ncc(-c2ccc(Br)cc2)s1`?
GI50: 0.752 µM; TGI: 5.35 µM

For `c1cc(C2CCCCC2)ccc1OCCCCCCN1CCNCC1`, which GI50 is on record?
Its GI50 is 1.91 µM.

And the TGI?
Its TGI is 3.67 µM.

`CSc1ccc(-c2cc(-c3ccc(NC(=O)CCCN4CCCC4)cc3)nc(-c3ccc(NC(=O)CCCN4CCCC4)cc3)c2)cc1` was tested. Which GI50 did it give?
The GI50 was 1.56 µM.

And the TGI?
The TGI was 3.03 µM.
